From article PMC8401933 (Molecules, 2021)

Legend:
Assay in all cases: KINOMEscan binding
Conditions in all cases: read-out: Percent Control
ERN1 = biological target: T1, ERN1 (Homo sapiens, UniProt O75460)
T1 construct: purchased Eurofins DiscoverX KINOMEscan

TLK2 = biological target: T2, TLK2 (Homo sapiens, UniProt Q86UE8)
T2 construct: purchased Eurofins DiscoverX KINOMEscan

FLT3(D835H) = biological target: T3, FLT3(D835H) (Homo sapiens, UniProt P36888, D835H)
T3 construct: purchased Eurofins DiscoverX KINOMEscan

MKK7 = biological target: T4, MKK7 (Homo sapiens, UniProt O14733)
T4 construct: purchased Eurofins DiscoverX KINOMEscan

SRMS = biological target: T5, SRMS (Homo sapiens, UniProt Q9H3Y6)
T5 construct: purchased Eurofins DiscoverX KINOMEscan

CDK3 = biological target: T6, CDK3 (Homo sapiens, UniProt Q00526)
T6 construct: purchased Eurofins DiscoverX KINOMEscan

GCN2(Kin.Dom.2,S808G) = biological target: T7, GCN2(Kin.Dom.2,S808G) (Homo sapiens, UniProt Q9P2K8, S808G)
T7 construct: GCN2(Kin.Dom.2,S808G); purchased Eurofins DiscoverX KINOMEscan

ZAK = biological target: T8, ZAK (Homo sapiens, UniProt Q9NYL2)
T8 construct: purchased Eurofins DiscoverX KINOMEscan

NEK4 = biological target: T9, NEK4 (Homo sapiens, UniProt P51957)
T9 construct: purchased Eurofins DiscoverX KINOMEscan

PIP5K2B = biological target: T10, PIP5K2B (Homo sapiens, UniProt P78356)
T10 construct: purchased Eurofins DiscoverX KINOMEscan
T10 sequence (P78356 whole entry): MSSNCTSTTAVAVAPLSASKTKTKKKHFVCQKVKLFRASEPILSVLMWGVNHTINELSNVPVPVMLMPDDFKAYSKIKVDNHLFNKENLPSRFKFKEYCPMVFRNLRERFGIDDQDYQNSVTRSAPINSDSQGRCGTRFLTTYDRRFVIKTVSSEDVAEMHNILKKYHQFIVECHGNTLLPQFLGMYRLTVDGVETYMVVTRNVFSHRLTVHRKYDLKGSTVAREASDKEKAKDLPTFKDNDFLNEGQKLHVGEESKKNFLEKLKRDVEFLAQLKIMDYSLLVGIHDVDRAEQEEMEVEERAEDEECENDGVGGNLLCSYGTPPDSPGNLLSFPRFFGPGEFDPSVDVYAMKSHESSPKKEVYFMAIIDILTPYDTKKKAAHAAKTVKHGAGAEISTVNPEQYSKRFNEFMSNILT

PAK4 = biological target: T11, PAK4 (Homo sapiens, UniProt O96013)
T11 construct: purchased Eurofins DiscoverX KINOMEscan
T11 sequence (O96013 whole entry): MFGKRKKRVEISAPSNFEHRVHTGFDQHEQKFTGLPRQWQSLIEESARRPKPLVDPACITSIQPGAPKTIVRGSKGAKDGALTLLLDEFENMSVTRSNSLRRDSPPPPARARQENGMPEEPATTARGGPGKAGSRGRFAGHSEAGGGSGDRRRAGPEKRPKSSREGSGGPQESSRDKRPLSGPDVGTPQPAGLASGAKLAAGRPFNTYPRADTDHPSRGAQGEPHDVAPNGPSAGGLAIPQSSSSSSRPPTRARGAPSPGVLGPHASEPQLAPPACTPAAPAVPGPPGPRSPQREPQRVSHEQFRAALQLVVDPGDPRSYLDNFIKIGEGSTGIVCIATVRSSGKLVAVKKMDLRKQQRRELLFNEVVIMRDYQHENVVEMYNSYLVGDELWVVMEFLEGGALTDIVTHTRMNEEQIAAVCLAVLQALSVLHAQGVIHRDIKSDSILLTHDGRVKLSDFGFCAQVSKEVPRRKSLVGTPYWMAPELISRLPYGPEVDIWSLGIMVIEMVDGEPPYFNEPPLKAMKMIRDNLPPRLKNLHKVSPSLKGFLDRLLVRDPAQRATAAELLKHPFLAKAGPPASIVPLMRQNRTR

EPHB1 = biological target: T12, EPHB1 (Homo sapiens, UniProt P54762)
T12 construct: purchased Eurofins DiscoverX KINOMEscan

CAMK4 = biological target: T13, CAMK4 (Homo sapiens, UniProt Q16566)
T13 construct: purchased Eurofins DiscoverX KINOMEscan
T13 sequence (Q16566 whole entry): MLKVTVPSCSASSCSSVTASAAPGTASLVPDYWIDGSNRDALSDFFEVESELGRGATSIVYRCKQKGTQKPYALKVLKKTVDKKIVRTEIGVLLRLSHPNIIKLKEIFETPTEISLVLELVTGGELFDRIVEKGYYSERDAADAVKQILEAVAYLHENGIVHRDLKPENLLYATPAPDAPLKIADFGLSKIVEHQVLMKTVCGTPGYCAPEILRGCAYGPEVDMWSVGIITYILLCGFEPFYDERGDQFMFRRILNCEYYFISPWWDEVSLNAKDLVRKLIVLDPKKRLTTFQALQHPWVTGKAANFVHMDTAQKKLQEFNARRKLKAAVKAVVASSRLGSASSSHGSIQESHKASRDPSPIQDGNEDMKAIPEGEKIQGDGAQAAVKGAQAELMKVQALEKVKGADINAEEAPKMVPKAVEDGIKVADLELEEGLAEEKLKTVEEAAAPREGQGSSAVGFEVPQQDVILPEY

RET = biological target: T14, RET (Homo sapiens, UniProt P07949)
T14 construct: purchased Eurofins DiscoverX KINOMEscan

CSK = biological target: T15, CSK (Homo sapiens, UniProt P41240)
T15 construct: purchased Eurofins DiscoverX KINOMEscan

ERK2 = biological target: T16, ERK2 (Homo sapiens, UniProt P28482)
T16 construct: purchased Eurofins DiscoverX KINOMEscan

PAK3 = biological target: T17, PAK3 (Homo sapiens, UniProt O75914)
T17 construct: purchased Eurofins DiscoverX KINOMEscan
T17 sequence (O75914 whole entry): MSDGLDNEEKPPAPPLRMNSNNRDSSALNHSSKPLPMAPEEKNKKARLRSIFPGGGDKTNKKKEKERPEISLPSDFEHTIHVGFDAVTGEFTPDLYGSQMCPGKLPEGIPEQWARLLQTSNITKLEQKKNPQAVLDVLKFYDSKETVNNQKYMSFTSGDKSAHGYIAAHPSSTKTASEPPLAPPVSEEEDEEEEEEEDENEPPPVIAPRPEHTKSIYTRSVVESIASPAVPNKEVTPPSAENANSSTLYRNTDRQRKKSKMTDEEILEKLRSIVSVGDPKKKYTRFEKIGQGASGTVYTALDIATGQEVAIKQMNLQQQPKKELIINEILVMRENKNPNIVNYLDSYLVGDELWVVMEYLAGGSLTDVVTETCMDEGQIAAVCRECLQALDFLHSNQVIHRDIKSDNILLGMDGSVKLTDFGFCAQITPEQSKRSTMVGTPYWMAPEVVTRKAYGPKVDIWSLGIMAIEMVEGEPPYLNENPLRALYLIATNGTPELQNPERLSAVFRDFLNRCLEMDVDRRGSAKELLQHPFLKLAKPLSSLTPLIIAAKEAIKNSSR

MAK = biological target: T18, MAK (Homo sapiens, UniProt P20794)
T18 construct: purchased Eurofins DiscoverX KINOMEscan

MARK2 = biological target: T19, MARK2 (Homo sapiens, UniProt Q7KZI7)
T19 construct: purchased Eurofins DiscoverX KINOMEscan

AURKA = biological target: T20, AURKA (Homo sapiens, UniProt O14965)
T20 construct: purchased Eurofins DiscoverX KINOMEscan

TBK1 = biological target: T21, TBK1 (Homo sapiens, UniProt Q9UHD2)
T21 construct: purchased Eurofins DiscoverX KINOMEscan

PIK3CA(H1047L) = biological target: T22, PIK3CA(H1047L) (Homo sapiens, UniProt P42336, H1047L)
T22 construct: purchased Eurofins DiscoverX KINOMEscan

RET(M918T) = biological target: T23, RET(M918T) (Homo sapiens, UniProt P07949, M918T)
T23 construct: purchased Eurofins DiscoverX KINOMEscan

STK36 = biological target: T24, STK36 (Homo sapiens, UniProt Q9NRP7)
T24 construct: purchased Eurofins DiscoverX KINOMEscan

IRAK4 = biological target: T25, IRAK4 (Homo sapiens, UniProt Q9NWZ3)
T25 construct: purchased Eurofins DiscoverX KINOMEscan

RIOK1 = biological target: T26, RIOK1 (Homo sapiens, UniProt Q9BRS2)
T26 construct: purchased Eurofins DiscoverX KINOMEscan

PIP5K1C = biological target: T27, PIP5K1C (Homo sapiens, UniProt O60331)
T27 construct: purchased Eurofins DiscoverX KINOMEscan
T27 sequence (O60331 whole entry): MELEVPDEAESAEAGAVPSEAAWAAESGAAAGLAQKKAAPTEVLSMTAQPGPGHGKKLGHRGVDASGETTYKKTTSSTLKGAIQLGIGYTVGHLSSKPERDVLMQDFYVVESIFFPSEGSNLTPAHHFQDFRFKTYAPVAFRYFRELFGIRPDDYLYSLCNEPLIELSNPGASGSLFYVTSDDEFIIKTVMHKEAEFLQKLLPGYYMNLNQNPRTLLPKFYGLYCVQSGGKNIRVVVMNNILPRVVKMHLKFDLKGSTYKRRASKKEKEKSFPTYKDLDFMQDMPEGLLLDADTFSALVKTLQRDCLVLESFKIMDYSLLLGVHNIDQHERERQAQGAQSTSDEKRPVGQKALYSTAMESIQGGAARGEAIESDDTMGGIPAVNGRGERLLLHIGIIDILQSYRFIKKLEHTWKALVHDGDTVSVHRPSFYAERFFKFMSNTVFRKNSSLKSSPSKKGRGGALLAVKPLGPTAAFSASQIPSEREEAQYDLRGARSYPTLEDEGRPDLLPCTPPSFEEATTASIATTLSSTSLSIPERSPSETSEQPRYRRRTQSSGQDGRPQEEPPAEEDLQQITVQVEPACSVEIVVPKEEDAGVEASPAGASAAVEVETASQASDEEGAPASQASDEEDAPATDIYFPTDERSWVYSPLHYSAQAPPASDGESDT

PIK3CG = biological target: T28, PIK3CG (Homo sapiens, UniProt P48736)
T28 construct: purchased Eurofins DiscoverX KINOMEscan

GRK1 = biological target: T29, GRK1 (Homo sapiens, UniProt Q15835)
T29 construct: purchased Eurofins DiscoverX KINOMEscan

PRKCH = biological target: T30, PRKCH (Homo sapiens, UniProt P24723)
T30 construct: purchased Eurofins DiscoverX KINOMEscan
T30 sequence (P24723 whole entry): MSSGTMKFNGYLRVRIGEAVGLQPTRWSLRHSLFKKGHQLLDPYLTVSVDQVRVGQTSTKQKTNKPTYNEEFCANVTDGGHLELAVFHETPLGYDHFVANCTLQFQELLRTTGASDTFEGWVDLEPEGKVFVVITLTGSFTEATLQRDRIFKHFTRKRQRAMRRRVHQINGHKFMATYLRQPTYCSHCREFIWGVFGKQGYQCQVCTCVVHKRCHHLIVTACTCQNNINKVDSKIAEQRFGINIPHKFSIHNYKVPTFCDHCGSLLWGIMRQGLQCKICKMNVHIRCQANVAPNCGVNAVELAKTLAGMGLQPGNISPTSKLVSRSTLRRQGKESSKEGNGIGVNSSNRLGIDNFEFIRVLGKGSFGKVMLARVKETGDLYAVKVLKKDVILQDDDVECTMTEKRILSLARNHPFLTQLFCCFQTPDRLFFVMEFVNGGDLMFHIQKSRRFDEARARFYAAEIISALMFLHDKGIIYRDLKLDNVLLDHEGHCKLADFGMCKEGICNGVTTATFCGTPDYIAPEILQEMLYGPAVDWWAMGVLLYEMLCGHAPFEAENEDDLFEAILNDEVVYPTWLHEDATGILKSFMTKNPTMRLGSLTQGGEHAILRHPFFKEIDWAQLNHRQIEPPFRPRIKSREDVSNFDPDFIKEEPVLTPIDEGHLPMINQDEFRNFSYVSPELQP

ITK = biological target: T31, ITK (Homo sapiens, UniProt Q08881)
T31 construct: purchased Eurofins DiscoverX KINOMEscan

VPS34 = biological target: T32, VPS34 (Homo sapiens, UniProt Q8NEB9)
T32 construct: purchased Eurofins DiscoverX KINOMEscan

MRCKB = biological target: T33, MRCKB (Homo sapiens, UniProt Q9Y5S2)
T33 construct: purchased Eurofins DiscoverX KINOMEscan

PKAC-beta = biological target: T34, PKAC-beta (Homo sapiens, UniProt P22694)
T34 construct: purchased Eurofins DiscoverX KINOMEscan

NEK1 = biological target: T35, NEK1 (Homo sapiens, UniProt Q96PY6)
T35 construct: purchased Eurofins DiscoverX KINOMEscan

KIT(V559D,T670I) = biological target: T36, KIT(V559D,T670I) (Homo sapiens, UniProt P10721, T670I/V559D)
T36 construct: purchased Eurofins DiscoverX KINOMEscan
T36 sequence (P10721 26-976 V559D/T670I): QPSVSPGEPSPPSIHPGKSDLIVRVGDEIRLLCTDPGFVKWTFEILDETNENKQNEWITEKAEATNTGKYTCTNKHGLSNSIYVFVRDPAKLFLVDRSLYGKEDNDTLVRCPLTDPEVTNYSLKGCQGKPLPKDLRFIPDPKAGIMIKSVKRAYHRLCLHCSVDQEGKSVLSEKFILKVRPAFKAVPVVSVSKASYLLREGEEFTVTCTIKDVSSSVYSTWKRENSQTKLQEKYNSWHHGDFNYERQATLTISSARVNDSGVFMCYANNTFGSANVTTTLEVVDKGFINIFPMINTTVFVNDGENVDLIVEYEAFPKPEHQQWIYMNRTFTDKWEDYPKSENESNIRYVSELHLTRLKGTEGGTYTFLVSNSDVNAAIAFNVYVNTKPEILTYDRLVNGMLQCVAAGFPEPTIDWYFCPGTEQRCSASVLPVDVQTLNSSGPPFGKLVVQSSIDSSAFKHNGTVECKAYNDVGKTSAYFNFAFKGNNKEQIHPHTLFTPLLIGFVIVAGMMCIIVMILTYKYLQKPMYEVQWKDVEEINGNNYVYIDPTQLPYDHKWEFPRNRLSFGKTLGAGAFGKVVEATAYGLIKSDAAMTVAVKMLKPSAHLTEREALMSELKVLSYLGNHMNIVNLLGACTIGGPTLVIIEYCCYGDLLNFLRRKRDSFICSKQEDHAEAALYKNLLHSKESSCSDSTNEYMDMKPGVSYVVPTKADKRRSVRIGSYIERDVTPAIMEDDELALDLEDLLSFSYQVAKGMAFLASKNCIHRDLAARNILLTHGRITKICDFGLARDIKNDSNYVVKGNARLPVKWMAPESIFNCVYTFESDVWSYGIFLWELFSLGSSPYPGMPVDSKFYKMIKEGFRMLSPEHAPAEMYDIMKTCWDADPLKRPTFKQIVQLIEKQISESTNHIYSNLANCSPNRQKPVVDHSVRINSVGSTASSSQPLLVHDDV

EPHB3 = biological target: T37, EPHB3 (Homo sapiens, UniProt P54753)
T37 construct: purchased Eurofins DiscoverX KINOMEscan

CSF1R = biological target: T38, CSF1R (Homo sapiens, UniProt P07333)
T38 construct: purchased Eurofins DiscoverX KINOMEscan

FLT3(K663Q) = biological target: T39, FLT3(K663Q) (Homo sapiens, UniProt P36888, K663Q)
T39 construct: purchased Eurofins DiscoverX KINOMEscan

MST4 = biological target: T40, MST4 (Homo sapiens, UniProt Q9P289)
T40 construct: purchased Eurofins DiscoverX KINOMEscan
T40 sequence (Q9P289 whole entry): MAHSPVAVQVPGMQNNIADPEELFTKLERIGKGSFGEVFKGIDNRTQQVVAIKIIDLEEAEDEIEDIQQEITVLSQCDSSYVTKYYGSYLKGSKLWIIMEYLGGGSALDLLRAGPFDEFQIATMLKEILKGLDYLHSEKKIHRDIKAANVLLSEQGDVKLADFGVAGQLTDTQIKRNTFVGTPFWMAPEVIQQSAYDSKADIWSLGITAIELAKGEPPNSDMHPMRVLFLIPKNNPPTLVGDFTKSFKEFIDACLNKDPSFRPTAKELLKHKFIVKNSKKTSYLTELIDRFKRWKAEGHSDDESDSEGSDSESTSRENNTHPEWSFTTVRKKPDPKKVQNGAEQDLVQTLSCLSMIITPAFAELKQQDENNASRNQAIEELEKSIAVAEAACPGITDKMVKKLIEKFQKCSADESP

NEK9 = biological target: T41, NEK9 (Homo sapiens, UniProt Q8TD19)
T41 construct: purchased Eurofins DiscoverX KINOMEscan

HPK1 = biological target: T42, HPK1 (Homo sapiens, UniProt Q92918)
T42 construct: purchased Eurofins DiscoverX KINOMEscan

KIT(L576P) = biological target: T43, KIT(L576P) (Homo sapiens, UniProt P10721, L576P)
T43 construct: purchased Eurofins DiscoverX KINOMEscan
T43 sequence (P10721 26-976 L576P): as the sequence (P10721 26-976 V559D/T670I) above, with D534V, L551P, I645T counted along it

CDK5 = biological target: T44, CDK5 (Homo sapiens, UniProt Q00535)
T44 construct: purchased Eurofins DiscoverX KINOMEscan

SMILES: CC(C)NC(=O)COc1cccc(-c2nc(Nc3ccc4[nH]ncc4c3)c3ccccc3n2)c1 [KD025, 2-(3-(4-((1H-indazol-5-yl)amino)quinazolin-2-yl)phenoxy)-N-isopropylacetamide]
- remaining binding at 10 µM (ERN1): 98%
- remaining binding at 10 µM (TLK2): 100%
- remaining binding at 10 µM (FLT3(D835H)): 22%
- remaining binding at 10 µM (MKK7): 73%
- remaining binding at 10 µM (SRMS): 70%
- remaining binding at 10 µM (CDK3): 92%
- remaining binding at 10 µM (GCN2(Kin.Dom.2,S808G)): 100%
- remaining binding at 10 µM (ZAK): 77%
- remaining binding at 10 µM (NEK4): 87%
- remaining binding at 10 µM (PIP5K2B): 9.7%
- remaining binding at 10 µM (PAK4): 100%
- remaining binding at 10 µM (EPHB1): 98%
- remaining binding at 10 µM (CAMK4): 100%
- remaining binding at 10 µM (RET): 88%
- remaining binding at 10 µM (CSK): 88%
- remaining binding at 10 µM (ERK2): 79%
- remaining binding at 10 µM (PAK3): 77%
- remaining binding at 10 µM (MAK): 84%
- remaining binding at 10 µM (MARK2): 71%
- remaining binding at 10 µM (AURKA): 75%
- remaining binding at 10 µM (TBK1): 66%
- remaining binding at 10 µM (PIK3CA(H1047L)): 82%
- remaining binding at 10 µM (RET(M918T)): 66%
- remaining binding at 10 µM (STK36): 91%
- remaining binding at 10 µM (IRAK4): 100%
- remaining binding at 10 µM (RIOK1): 6.2%
- remaining binding at 10 µM (PIP5K1C): 47%
- remaining binding at 10 µM (PIK3CG): 82%
- remaining binding at 10 µM (GRK1): 64%
- remaining binding at 10 µM (PRKCH): 96%
- remaining binding at 10 µM (ITK): 92%
- remaining binding at 10 µM (VPS34): 27%
- remaining binding at 10 µM (MRCKB): 1%
- remaining binding at 10 µM (PKAC-beta): 98%
- remaining binding at 10 µM (NEK1): 99%
- remaining binding at 10 µM (KIT(V559D,T670I)): 98%
- remaining binding at 10 µM (EPHB3): 99%
- remaining binding at 10 µM (CSF1R): 99%
- remaining binding at 10 µM (FLT3(K663Q)): 55%
- remaining binding at 10 µM (MST4): 88%
- remaining binding at 10 µM (NEK9): 85%
- remaining binding at 10 µM (HPK1): 76%
- remaining binding at 10 µM (KIT(L576P)): 74%
- remaining binding at 10 µM (CDK5): 83%
